{
  "source": "patent US8519154B2",
  "about": "“Method for treatment of bronchial asthma” (Council of Scientific & Industrial Research, priority 2011, dated 2013)",
  "key": {"PDE-4": {"tested_on": "PDE-4", "assay": "Phosphodiesterase 4 assay, [3H]cAMP SPA enzyme assay, enzyme preparation from rat heart", "type": "biochemical", "protocol": "For phosphodiesterase (PDE-4) assay, enzyme preparations were performed from rat heart (Ko et al 2004, Biochemical Pharmacology 68:2087-2094). Heart was excised from anesthetized rat and transfer into normal saline solution. Heart weighing 687 mg was taken and homogenized in 2.5 volumes of homogenization buffer containing 20 mM Tris-Cl, 50 mM NaCl, 2 mM EDTA, 0.1 mM PMSF, […], protease inhibitors 1 μg/μl. The homogenate was centrifuged at 500×g for 5 minute at 4° C. Then sup was taken for further centrifuged at 40,000×g for 30 minute (ultra centrifugation). After centrifugation supernatant was collected for phosphodiesterase assay. Protein concentration was estimated and for each assay, 2.5 μg protein (PDE enzyme preparation) was used. All compounds tested for PDE 4 activity were dissolved in DMSO.\nPhosphodiesterase 4 assay: Phosphodiesterase 4 assay was conducted with [^3H] cAMP SPA enzyme assay (GE Amersham, UK) using 2.5 μg enzyme preparation for each well. Into each well 60 μl water, 10 μl assay buffer supplied with the kit, 10 μl compound (inhibitor), 10 μl PDE enzyme or homogenizing buffer (blank) and […] radiolabel led cAMP ([^3H]cAMP, GE Amersham, UK) were added. To check activity of the enzyme without inhibitor (compound) 10 μl DMSO was added in place of inhibitor to a separate well. The reaction mixtures were incubated for […] at 30° C. The reaction was stopped by adding 50 μl SPA bead supplied with the kit. It was then mixed well and allowed to stand at room temperature for 20 min. Breakdown of cAMP in each tube was monitored by β counter. The reading in each tube was obtained in counts per minute (CPM). The reading of the blank tube (without enzyme) was subtracted from each tube to normalize the counts. The enzyme activity was calculated by considering the CPM reading without any inhibitor (compound) as 100."}, "[1]": {"tested_on": "BALB/c mice sensitized and challenged with ovalbumin (OVA)", "assay": "Airway responsiveness to methacholine in mouse model of asthma", "type": "in vivo", "protocol": "Present invention describes the efficacy of compound I in vivo mouse model of asthma. BALB/c mice were sensitized and challenged with ovalbumin (OVA) as shown in scheme 2 to develop asthmatic features such as airway hyperreactivity (AHR) to methacholine (MCh).\nMice were sensitized with 0.2 ml PBS containing 50 μg ovalbumin (OVA) (Sigma, USA) and 4 mg aluminum hydroxide in saline intraperitonially (i.p.) on days 0, 7 and 14 as shown in scheme 2. Sham group mice were sensitized with only alum dissolved in PBS. From day 21 to 30, mice were exposed to aerosol of OVA (3%) inhalation 25 minutes daily in a Plexiglas chamber (20×20×10 cm^3). The aerosol was generated by a nebulizer (OMRON CX, model) with an airflow rate of 9 L/minute. Sham group mice were challenged with PBS alone. […]\nAirway responsiveness was measured by barometric plethysmography using whole-body plethysmography (WBP; Buxco, Troy, N.Y.) 12 hours after last saline or ovalbumin challenge. […] Enhanced pause (Penh) to methacholine as measured using barometric plethysmography is a valid indicator of bronchoconstriction in mice and can be used to measure AHR. […] Readings were taken and averaged for 5 minutes from the starting time of nebulisation. Airway responsiveness to MCh was evaluated by the concentration of MCh required to increase the Pen H to twice the baseline value (MCh PC200)."}, "mice [2]": {"tested_on": "mice", "assay": "Electric shock induced convulsions", "type": "in vivo, Swiss mice", "protocol": "Convulsion were induced by a single electroshock (50 Hz in frequency, 0.5 ms pulse width, 50 mA current for 0.3 s) applied through bi-polar electrodes attached to the ear pinna on both side using a pulse generator (Ugo Basile, Italy). The convulsive activity (determined by loss of tonic extensor seizure) was recorded in control (untreated) and Compound I were treated (before electro-shock application) animals [Achliya, G S, Wadodkar, S G, Darle, A K., Evaluation of CNS activity of Bramhi Ghrita. Indian J. Pharmacol. 37 (2005) 33-36].\nAnti-convulsant activity was measured by electric shock induced seizure. Five Swiss mice were used for one dose of drug. Convulsion were induced by a single electroshock (50 Hz in frequency, 0.5 ms pulse width, 50 mA current for 0.3 s) applied through bi-polar electrodes attached to the ear pinna on both side by a pulse generator (Ugo Basile, Italy) Test drug were administered orally 60 min before electroshock application, and convulsive activity was determined by loss of tonic extensor seizure."}, "mice [3]": {"tested_on": "mice", "assay": "Charcoal meal transit time", "type": "in vivo", "protocol": "[…] charcoal suspension (20 ml/kg prepared as a 5% solution in 10% gum acacia) was administered perorally 60 min after D8 administration (perorally). After 30 min, charcoal meal administration small intestines were excised and aligned parallel to a ruler. Ratio of the distance traveled by the charcoal meal to the total length of the small intestine was determined for the control (untreated) and Compound I treated mice [Ali, B. H. Bashir, A A. The effect of alpha 2-receptor agonists and antagonists on gastro-intestinal transit time. Clinical and Experimental Pharmacology and Physiology, 20 (1993) 1-6]."}, "Solubility in water": {"assay": "Solubility in water", "type": "physicochemical"}},
  "data": [
    {"smiles": "COc1cc(C=O)cc2c1[nH]c1ccccc12", "note": "[Compound I, 1-methoxy-3-formyl-9H carbazole]", "values": [
      {"measurement": "% of Inhibition", "setting": "PDE-4; 0.1 μg/ml", "result": 1.4, "unit": "%"},
      {"measurement": "% of Inhibition", "setting": "PDE-4; 1 μg/ml", "result": 34.7, "unit": "%"},
      {"measurement": "% of Inhibition", "setting": "PDE-4; 10 μg/ml", "result": 73.1, "unit": "%"},
      {"measurement": "IC50", "setting": "PDE-4; compound of natural origin (extraction from plants)", "result": 20, "unit": "µM"},
      {"measurement": "extent of inhibition of PDE 4 activity", "setting": "PDE-4; compound of natural origin, compared with rolipram", "result": "comparable to known PDE 4 inhibitor, rolipram"},
      {"measurement": "IC50", "setting": "PDE-4; synthetically prepared compound (chemical origin)", "result": 0.05, "unit": "µM"},
      {"measurement": "MChPC200 (airway hyper-responsiveness)", "setting": "[1]; 0.1, 1 and 10 mg/kg orally twice per day", "result": "significantly attenuated the decrease in MChPC200"},
      {"measurement": "dose with maximum effect on MChPC200", "setting": "[1]; orally twice per day", "result": 10, "unit": "mg/kg"},
      {"measurement": "Convulsions Clonic", "setting": "mice [2]; 12.5 mg/kg p.o.", "result": "5/5"},
      {"measurement": "Convulsions Tonic", "setting": "mice [2]; 12.5 mg/kg p.o.", "result": "5/5"},
      {"measurement": "Mortality", "setting": "mice [2]; 12.5 mg/kg p.o.", "result": "1/5"},
      {"measurement": "Convulsions Clonic", "setting": "mice [2]; 50 mg/kg p.o.", "result": "5/5"},
      {"measurement": "Convulsions Tonic", "setting": "mice [2]; 50 mg/kg p.o.", "result": "5/5"},
      {"measurement": "Mortality", "setting": "mice [2]; 50 mg/kg p.o.", "result": "0/5"},
      {"measurement": "Convulsions Clonic", "setting": "mice [2]; 100 mg/kg p.o.", "result": "5/5"},
      {"measurement": "Convulsions Tonic", "setting": "mice [2]; 100 mg/kg p.o.", "result": "5/5"},
      {"measurement": "Mortality", "setting": "mice [2]; 100 mg/kg p.o.", "result": "0/5"},
      {"measurement": "anti-convulsant activity", "setting": "mice [2]; 12.5, 25 and 50 mg/kg orally", "result": "no anti-convulsant activity"},
      {"measurement": "% Transport (Mean ± SEM)", "setting": "mice [3]; 12.5 mg/kg p.o.", "result": "74.15 ± 3.4", "unit": "%"},
      {"measurement": "% Transport (Mean ± SEM)", "setting": "mice [3]; 25 mg/kg p.o.", "result": "76.6 ± 6.7", "unit": "%"},
      {"measurement": "% Transport (Mean ± SEM)", "setting": "mice [3]; 50 mg/kg p.o.", "result": "77.12 ± 1.49", "unit": "%"},
      {"measurement": "change in charcoal powder transporting ratio vs control", "setting": "mice [3]; 12.5, 25 and 50 mg/kg", "result": "no significant change in charcoal powder transporting ratio"},
      {"measurement": "solubility in water", "setting": "Solubility in water", "result": "insoluble in water"}
    ]}
  ]
}
